Experimental data reported in patent US9340577B2, “HLA binding motifs and peptides and their uses” (priority 1992, dated 2016).
No end group written: not given here.

Key:
Test in all cases: biochemical
Type in all cases: binding
A*0206 = A*0206 (Homo sapiens, UniProt P04439, D140Y/D185E/D98H/E176V/E277Q/F33Y/G131W/G231S/I119V/I121R/I166T/I218V/L300P/L318F/N151K/N90K/P208A/P217A/Q86G/Q94H/R138H/R169H/T345S)
A*6802 = A*6802 (Homo sapiens, UniProt P04439, A269V/D140Y/D185E/E176V/E277Q/E87N/F33Y/G231S/I121R/I166T/I218V/L180W/L300P/L318F/N151K/P208A/P217A/Q86R/R138H/R169H/S129P/T345S/V36M)
A*0202 = A*0202 (Homo sapiens, UniProt P04439, D140Y/D185E/D98H/E176V/E277Q/G131W/G231S/I119L/I121R/I166T/I218V/L180W/L300P/L318F/N151K/N90K/P208A/P217A/Q67R/Q86G/Q94H/R138H/R169H/T345S)
A*0203 = A*0203 (Homo sapiens, UniProt P04439, A173T/D140Y/D185E/D98H/E277Q/G131W/G231S/I119V/I121R/I166T/I218V/L180W/L300P/L318F/N151K/N90K/P208A/P217A/Q86G/Q94H/R138H/R169H/T345S)
HLA-A*0201 (HLA-A2.1) = HLA-A*0201 (HLA-A2.1) (Homo sapiens, UniProt P04439, D140Y/D185E/D98H/E176V/E277Q/G131W/G231S/I119V/I121R/I166T/I218V/L300P/L318F/N151K/N90K/P208A/P217A/Q86G/Q94H/R138H/R169H/T345S)

Molecule | IC50 (A*0206) | IC50 (A*6802) | IC50 (A*0202) | IC50 (A*0203) | IC50 (HLA-A*0201 (HLA-A2.1))
VIKSDLVNEEV [Peptide 9013.0278] | > 20 µM | > 20 µM | 0.057 µM | 1.73 µM | > 20 µM
YTNWGEIYI [Peptide 1578.49] | 0.7 µM | 0.024 µM | 0.01 µM | 0.082 µM | 0.293 µM
YLYYRPGVNL [Peptide 9013.0209] | 0.94 µM | 0.953 µM | 0.0022 µM | 0.0028 µM | 0.054 µM
RLTVTTITVYA [Peptide 9013.0305] | 1.1 µM | 0.053 µM | 0.023 µM | 0.205 µM | 0.243 µM
TLNNSGSYT [Peptide 9013.0065] | > 20 µM | > 20 µM | 0.237 µM | 0.233 µM | > 20 µM
FIQGAVISFV [Peptide 1578.12] | 0.345 µM | 0.394 µM | 0.012 µM | 0.018 µM | 0.255 µM
RILQQLLFV [Peptide 1525.09] | 0.018 µM | 17.9 µM | 0.489 µM | 0.06 µM | 0.028 µM
RLQLSNGNRTL [Peptide 9013.0286] | > 20 µM | > 20 µM | 0.443 µM | 2.84 µM | > 20 µM
RMLQQLLFV [Peptide 1525.16] | 0.014 µM | > 20 µM | 0.021 µM | 0.0068 µM | 0.021 µM
CSCC[C@H](NC(=O)[C@H](C)N)C(=O)N[C@@H](CS)C(=O)N[C@@H](CCCNC(=N)N)C(=O)N[C@@H](Cc1c[nH]c2ccccc12)C(=O)NCC(=O)N[C@@H](CC(C)C)C(=O)N[C@@H](CC(C)C)C(=O)N[C@H](C(=O)O)C(C)C [Peptide 1334.07] | 2.11 µM | 3.9 µM | 9.28 µM | 1.57 µM | 0.051 µM
PLYSWRINGI [Peptide 9013.0236] | > 20 µM | > 20 µM | 0.348 µM | 0.014 µM | > 20 µM
LLLSNGNRTL [Peptide 9013.0227] | 3.99 µM | > 20 µM | 0.158 µM | 0.412 µM | 1.55 µM
QLHTQVLFIA [Peptide 9013.0242] | > 20 µM | > 20 µM | 0.322 µM | 0.163 µM | 3.94 µM
FQYAQLADV [Peptide 1578.36] | 0.032 µM | 16.9 µM | 0.0037 µM | 0.012 µM | 0.042 µM
RLTVTTITV [Peptide 9013.0067] | 0.704 µM | 13 µM | 0.022 µM | 0.036 µM | 0.108 µM
RTTVKTITVSV [Peptide 9013.0318] | 0.137 µM | 0.0014 µM | 0.866 µM | 0.457 µM | 1.59 µM
FLSHVKIPV [Peptide 1578.55] | 0.091 µM | 0.06 µM | 0.004 µM | 0.0098 µM | 0.041 µM
ALYWYKTGI [Peptide 86.0176] | 4.12 µM | 3.29 µM | 0.021 µM | 0.053 µM | 0.665 µM
ALAFTCEPET [Peptide 9013.0156] | 7.96 µM | > 20 µM | 0.206 µM | 0.279 µM | > 20 µM
ALYSWFVNGT [Peptide 9013.0173] | 0.875 µM | > 20 µM | 0.0089 µM | 0.0036 µM | 0.661 µM
LLLSNDNRTL [Peptide 9013.0205] | > 20 µM | > 20 µM | 0.303 µM | 4.18 µM | 8.19 µM
KLMSQLLNI [Peptide 1578.29] | 0.056 µM | > 20 µM | 0.0016 µM | 0.012 µM | 0.035 µM
LQGSVICFV [Peptide 1578.06] | 0.052 µM | 3.56 µM | 0.033 µM | 0.021 µM | 0.023 µM
RTLQQLLFI [Peptide 1525.11] | 0.089 µM | > 20 µM | > 20 µM | 1.66 µM | 0.152 µM
TAKLTIESV [Peptide 9013.0009] | 10.7 µM | 0.243 µM | 0.48 µM | 0.216 µM | > 20 µM

Molecule | IC50 (A*0206) | IC50 (A*6802) | IC50 (A*0202) | IC50 (A*0203) | IC50 (HLA-A*0201 (HLA-A2.1))
CSCC[C@H](NC(=O)[C@@H](N)CCCNC(=N)N)C(=O)N1CCC[C@H]1C(=O)N[C@@H](CCC(=O)O)C(=O)N[C@@H](C)C(=O)N[C@@H](C)C(=O)N1CCC[C@H]1C(=O)N1CCC[C@H]1C(=O)N[C@H](C(=O)N[C@H](C(=O)O)C(C)C)C(C)C [Peptide 1317.29] | 0.259 µM | > 20 µM | 0.062 µM | 0.0063 µM | 0.055 µM
IQNDTGFYV [Peptide 9013.0035] | 0.032 µM | 4.5 µM | 0.016 µM | 0.037 µM | 0.148 µM
IQNDTGFYTV [Peptide 9013.0149] | 0.063 µM | 8.84 µM | 0.02 µM | 0.031 µM | 0.6 µM
CLAHNSDTGL [Peptide 9013.0191] | > 20 µM | > 20 µM | 0.013 µM | 0.039 µM | 13.5 µM
YVIGTQQAV [Peptide 9013.0024] | 0.084 µM | 0.003 µM | 0.0032 µM | 0.0062 µM | 0.16 µM
FLQSTQELFI [Peptide 9013.0179] | 1.11 µM | > 20 µM | 0.0037 µM | 0.059 µM | 0.095 µM
LIQPFILYA [Peptide 1578.07] | 0.071 µM | 8.63 µM | 0.07 µM | 0.046 µM | 0.124 µM
VLAEAMSRV [Peptide 1516.10] | 0.075 µM | 0.487 µM | 0.0026 µM | 0.0037 µM | 0.04 µM
FLQGSVICFV [Peptide 1578.05] | 0.073 µM | 0.38 µM | 0.0035 µM | 0.0091 µM | 0.041 µM
ALYWYRTGM [Peptide 86.0189] | 15.6 µM | > 20 µM | 0.013 µM | 0.057 µM | 1.6 µM
GMIDDVTAI [Peptide 1578.44] | 0.037 µM | > 20 µM | 0.0053 µM | 0.0073 µM | 0.023 µM
FLSALKLFL [Peptide 1578.17] | 0.045 µM | 2.15 µM | 0.0028 µM | 0.011 µM | 0.017 µM
TLTTITVYA [Peptide 9013.0069] | 0.666 µM | 0.005 µM | 0.00075 µM | 0.0026 µM | 0.014 µM
ALFNVQEGV [Peptide 1578.41] | 0.045 µM | 0.914 µM | 0.002 µM | 0.0052 µM | 0.064 µM
YTNWSEIYI [Peptide 1578.56] | 0.216 µM | 0.005 µM | 0.0036 µM | 0.047 µM | 0.061 µM
VQWAFDNEL [Peptide 86.0182] | 0.256 µM | > 20 µM | 0.319 µM | 0.449 µM | 3.23 µM
TLFNVTRNDV [Peptide 9013.0230] | 4.84 µM | > 20 µM | 0.069 µM | 0.025 µM | 1.48 µM
FQKYKTLFV [Peptide 1578.54] | 0.419 µM | > 20 µM | 0.821 µM | 0.03 µM | 1.14 µM
IIYPNASLLV [Peptide 9013.0144] | 0.07 µM | 0.83 µM | 0.0099 µM | 0.0047 µM | 0.466 µM
QLSTQELFI [Peptide 9013.0057] | 7.47 µM | 8.17 µM | 0.0045 µM | 0.027 µM | 0.065 µM
RLQLSNGNRTV [Peptide 9013.0328] | > 20 µM | 4.84 µM | 0.128 µM | 0.057 µM | 5.9 µM
CQAHNSDTGV [Peptide 9013.0190] | 1.56 µM | > 20 µM | 0.339 µM | 0.466 µM | > 20 µM
RTLQQLLFV [Peptide 1525.15] | 0.03 µM | > 20 µM | 1.28 µM | 0.19 µM | 0.12 µM
MAFEYALLA [Peptide 1578.09] | 0.1 µM | 0.029 µM | 0.052 µM | 0.074 µM | 0.226 µM
SLNRSDPVTL [Peptide 9013.0233] | > 20 µM | > 20 µM | 0.059 µM | 0.08 µM | 16.2 µM
